{"source": "patent US20150307940A1", "about": "“MOLECULAR SIGNATURE OF CUTANEOUS PIGMENTARY SPOTS, ASSOCIATED WITH THE EXTRACELLULAR MATRIX” (L'OREAL, priority 2011, published 2015)", "key": {"[1]": {"system": "SMAD7, SMAD family member 7", "details": "cited from earlier work"}, "[2]": {"system": "BMP2, bone morphogenetic protein 2", "details": "cited from earlier work"}, "ASPN, Asporin": {"system": "ASPN, Asporin", "details": "cited from earlier work"}, "[3]": {"target": "PLAU, plasminogen activator, urokinase (Homo sapiens, UniProt P00749)", "details": "cited from earlier work"}, "[4]": {"system": "SMAD3, SMAD family member 3", "details": "cited from earlier work"}, "[5]": {"system": "TGFBR2, transforming growth factor, β receptor II (70/80 kDa)", "details": "cited from earlier work"}, "[6]": {"system": "TIMP1, metallopeptidase inhibitor 1", "details": "cited from earlier work"}, "[7]": {"target": "T1, PLOD2, procollagen-lysine, 2-oxoglutarate 5-dioxygenase 2 (Homo sapiens, UniProt O00469)", "T1 sequence (O00469 26-737)": "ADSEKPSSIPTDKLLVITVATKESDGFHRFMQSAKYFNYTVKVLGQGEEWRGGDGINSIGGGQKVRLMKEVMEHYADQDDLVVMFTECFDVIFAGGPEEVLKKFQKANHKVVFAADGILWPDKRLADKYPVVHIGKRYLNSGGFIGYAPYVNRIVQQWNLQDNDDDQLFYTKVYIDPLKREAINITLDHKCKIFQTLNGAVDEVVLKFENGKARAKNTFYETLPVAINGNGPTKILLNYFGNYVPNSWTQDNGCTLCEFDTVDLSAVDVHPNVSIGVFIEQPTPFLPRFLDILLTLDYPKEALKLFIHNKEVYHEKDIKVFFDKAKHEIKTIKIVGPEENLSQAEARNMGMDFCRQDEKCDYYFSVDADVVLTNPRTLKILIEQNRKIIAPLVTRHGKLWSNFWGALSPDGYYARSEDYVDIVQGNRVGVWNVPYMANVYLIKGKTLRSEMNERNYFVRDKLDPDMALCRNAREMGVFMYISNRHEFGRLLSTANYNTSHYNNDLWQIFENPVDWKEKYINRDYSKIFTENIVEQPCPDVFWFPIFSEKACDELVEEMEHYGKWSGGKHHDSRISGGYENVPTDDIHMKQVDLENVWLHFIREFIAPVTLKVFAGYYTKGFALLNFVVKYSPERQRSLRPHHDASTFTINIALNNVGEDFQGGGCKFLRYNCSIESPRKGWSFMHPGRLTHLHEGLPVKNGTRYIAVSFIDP", "details": "cited from earlier work"}, "[8]": {"target": "T2, LYZ, lysozyme (renal amyloidosis) (Homo sapiens, UniProt P61626)", "T2 sequence (P61626 19-148)": "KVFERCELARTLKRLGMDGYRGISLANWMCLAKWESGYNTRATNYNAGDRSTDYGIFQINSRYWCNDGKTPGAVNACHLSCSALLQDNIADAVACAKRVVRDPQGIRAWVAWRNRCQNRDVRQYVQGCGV", "details": "cited from earlier work"}, "[9]": {"system": "reconstructed pigmented skin (RPS)", "assay": "Stimulation of pigmentation of reconstructed pigmented skin by treatment with TGF-beta", "type": "cell-based", "details": "200 pg/mL TGF-β1 on equivalent dermis for 3 days, compared with control", "protocol": "FIG. 1: This figure illustrates the Reconstructed Pigmented Skin (RPS) treatment protocol using TGF-β. In the diagram, T means “treatment with TGF-β”, in a concentration of 200 pg/mL, with 4 mM of HCl and 1 mg/mL of BSA as the vehicle. The medium was MEM 3F′ with 2% FBS. The equivalent derma were treated for 3 consecutive days. On D0i, the equivalent dermis was seeded with keratinocytes and melanocytes (K+M on the graph) and kept immersed for 7 days. The culture was then emersed for 2 weeks;\nThe treatment protocol for reconstructed pigmented skin (RPS) with TGF-β is illustrated in FIG. 1. It was as follows:\nEquivalent dermis (lattices) containing live fibroblasts in a collagen matrix were attached to the bottom of a Petri dish (D-4) and treated with TGF-β1 (T on FIG. 1) in a concentration of 200 pg/mL (vehicle: 4 mM of HCl and 1 mg/mL of BSA; medium: MEM 3F′ with 2% FBS), for 3 days (D-3; D-2 and D-1 in FIG. 1). Next, the pigmented epidermis was reconstructed on the equivalent dermis by seeding keratinocytes and melanocytes (D0). The culture was kept immersed for 1 week and emersed for 2 weeks (FIG. 1).\nSamples were removed to analyse the pigmentation: • integration and morphology of melanocytes were observed after Dopa reaction on detached epidermis; • colorimetric luminance measurement provided information regarding the degree of clarity of the samples (the lower the L*, the darker the samples); • the presence of melanin was observed after Fontana Masson staining skin sections; and • the quantity of melanin present in the epidermis was measured by image analysis."}, "MATN2, matrilin 2": {"system": "MATN2, matrilin 2", "details": "cited from earlier work"}}, "note": "Where two headings read alike, the source gives them in different places. Where a SMILES comes first, the peptide text is derived from it."}
{"compound": "O=CC(=O)C[C@H](O)[C@H](O)CO", "note": "[3-deoxyglucosone]", "values": [{"measurement": "Sense of modulation: SMAD7 expression", "setting": "[1]", "value": "Increases"}]}
{"compound": "Cc1cc(SCc2sc(-c3ccc(C(F)(F)F)c(F)c3)nc2C)ccc1OCC(=O)O", "note": "[GW0742]", "values": [{"measurement": "Sense of modulation: BMP2 expression", "setting": "[2]", "value": "Reduces exp."}, {"measurement": "Sense of modulation: BMP2 expression", "setting": "[2]; listed as GW-0742", "value": "reduces"}]}
{"compound": "N#Cc1ccc(C(c2ccc(C#N)cc2)n2cncn2)cc1", "note": "[Letrozole]", "values": [{"measurement": "Sense of modulation: ASPN expression", "setting": "ASPN, Asporin", "value": "Increases"}]}
{"compound": "CC(=O)N[C@@H](CO)C(=O)N[C@@H](CC(=O)O)C(=O)N[C@@H](CCCCN)C(=O)N1CCC[C@H]1C(=O)O", "note": "[N-acetyl-seryl-aspartyl-lysyl-proline] (Ac-SDKP-OH)", "values": [{"measurement": "Sense of modulation: SMAD7 expression", "setting": "[1]", "value": "Increases"}]}
{"compound": "CC(C)=CCC[C@](C)(O[C@@H]1O[C@H](CO)[C@@H](O)[C@H](O)[C@H]1O)[C@H]1CC[C@]2(C)[C@@H]1[C@H](O)C[C@@H]1[C@@]3(C)CC[C@H](O)C(C)(C)[C@@H]3[C@@H](O[C@@H]3O[C@H](CO)[C@@H](O)[C@H](O)[C@H]3O[C@@H]3OC[C@@H](O)[C@H](O)[C@H]3O)C[C@]12C", "note": "[Notoginsenoside R1]", "values": [{"measurement": "Sense of modulation: PLAU expression", "setting": "[3]", "value": "Increases"}]}
{"compound": "O=C1CCC[C@@H]2[C@H]3CCC[N+]4([O-])CCC[C@@H](CN12)[C@@H]34", "note": "(some centres unmarked) [Oxymatrine]", "values": [{"measurement": "Sense of modulation: SMAD7 expression", "setting": "[1]", "value": "Increases"}, {"measurement": "modulation of SMAD3 ('reduces SMAD3', level not given)", "setting": "[4]", "value": "reduces"}]}
{"compound": "N=C(N)c1ccc(N)cc1", "note": "[P-aminobenzamidine]", "values": [{"measurement": "Sense of modulation: PLAU activity", "setting": "[3]", "value": "Reduces activity"}, {"measurement": "Sense of modulation: PLAU activity", "setting": "[3]; listed as p-aminobenzamidine", "value": "reduces"}]}
{"compound": "NC(=O)c1ccc(-c2nc(-c3ccc4c(c3)OCO4)c(-c3ccccn3)[nH]2)cc1", "note": "[SB-431542]", "values": [{"measurement": "Sense of modulation: SMAD3 expression", "setting": "[4]", "value": "Reduces"}, {"measurement": "modulation of SMAD3 ('reduces SMAD3', level not given)", "setting": "[4]", "value": "reduces"}]}
{"compound": "O=C(/C=C/c1ccc(O)c2c1[C@H](C(=O)O[C@H](Cc1ccc(O)c(O)c1)C(=O)O)[C@@H](c1ccc(O)c(O)c1)O2)O[C@H](Cc1ccc(O)c(O)c1)C(=O)O", "note": "[Salvianolic Acid B (Sal B), Salvianolic Acid B]", "values": [{"measurement": "Sense of modulation: TGFBR2 expression", "setting": "[5]", "value": "reduces"}, {"measurement": "Sense of modulation: TGFBR2 expression", "setting": "[5]; listed as Salvianolic acid B (SA-B)", "value": "Reduces"}, {"measurement": "Sense of modulation: SMAD3 expression", "setting": "[4]", "value": "Reduces"}, {"measurement": "modulation of SMAD3 ('reduces SMAD3', level not given)", "setting": "[4]", "value": "reduces"}]}
{"compound": "O=C([O-])Cc1ccccc1.[Na+]", "note": "[Sodium phenylacetate (NaPA), Sodium phenylacetate]", "values": [{"measurement": "Sense of modulation: PLAU expression", "setting": "[3]", "value": "Reduces"}, {"measurement": "Sense of modulation: PLAU expression", "setting": "[3]; listed as NaPA", "value": "reduces"}]}
{"compound": "COC(=O)[C@@H](c1ccccc1Cl)N1CCc2sccc2C1", "note": "[Thienopyridine SR 25989]", "values": [{"measurement": "Sense of modulation: PLAU expression", "setting": "[3]", "value": "Increases"}]}
{"compound": "CCCCC(=O)N(Cc1ccc(-c2ccccc2-c2nnn[nH]2)cc1)[C@H](C(=O)O)C(C)C", "note": "[Valsartan]", "values": [{"measurement": "Sense of modulation: TIMP1 expression", "setting": "[6]", "value": "Reduces"}, {"measurement": "Sense of modulation: TIMP1 expression", "setting": "[6]; listed as valsartan", "value": "reduces"}]}
{"compound": "CC(C)(C#N)c1cc(Cn2cncn2)cc(C(C)(C)C#N)c1", "note": "[anastrozole]", "values": [{"measurement": "Sense of modulation: ASPN expression", "setting": "ASPN, Asporin", "value": "Increases"}]}
{"compound": "N#CCCN", "note": "[beta-aminopropionitrile (bAPN), beta-aminopropionitrile]", "values": [{"measurement": "Sense of modulation: PLOD2 expression", "setting": "[7]", "value": "Reduces"}]}
{"compound": "PACAP38: form of pituitary adenylate cyclase-activating polypeptide listed beneath PACAP", "values": [{"measurement": "Sense of modulation: LYZ expression", "setting": "[8]", "value": "Increases"}]}
{"compound": "TGF-β1: Transforming growth factor beta 1 used to treat equivalent dermis at 200 pg/mL", "values": [{"measurement": "integration and morphology of melanocytes (Dopa reaction on detached epidermis)", "setting": "[9]", "value": "still present in the epidermis and retain the correct dendritic morphology"}, {"measurement": "melanin content (Fontana Masson stained sections, quantification by image analysis)", "setting": "[9]", "value": "visibly increased"}, {"measurement": "melanin deposits in the epidermis", "setting": "[9]", "value": "higher"}, {"measurement": "luminance of the samples (L*)", "setting": "[9]; lower L* = darker", "value": "reduced"}]}
{"compound": "Vitamin K2 menaquinone", "values": [{"measurement": "Sense of modulation: MATN2 expression", "setting": "MATN2, matrilin 2", "value": "Increases"}]}
